Positions of bridges follow the written chain, without caps; N, C: chain ends. Non-standard residues stand in square brackets, D forms with d. Chains are numbered I, II in the order given. No end group written: not given here. Aib = CC(C)(N)C(=O)O; βAla = NCCC(=O)O
The substances below were run on Normal Kunming (KM) mice (assay: multiple OGTT (mOGTT): hypoglycemic duration after a single administration). Conditions: monomeric peptides, single injection at the same dose (1.126 nmol), subcutaneous.
Assay type: in vivo
Procedure, shortened: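 Single administration in normal Kunming mice, followed by oral glucose loading with tail-vein glucose sampled at 0–120 min (0, 10, 20, 40, 60, 120 min). Effective duration ended once mean glucose exceeded the NaCl control group on two occasions.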

Substance	Hypoglycemic
His-aAib-Glu-Gly-Thr-Phe-Thr-Ser-Asp-Val-Ser-Cys-Tyr-Leu-Glu-Gly-Gln-Ala-Ala-Lys-Glu-Phe-Ile-Ala-Trp-Leu-Val-Arg-aAib-Arg-NH2 (H[Aib]EGTFTSDVSCYLEGQAAKEFIAWLVR[Aib]R-NH2; also: disulfide-linked homodimer via Cys) [G7 series 51]	3 days
His-aAib-Glu-Gly-Thr-Phe-Thr-Ser-Asp-Val-Cys-Ser-Tyr-Leu-Glu-Gly-Gln-Ala-Ala-Lys[N-ϵ-(N-α-Palmitoyl)]-Glu-Phe-Ile-Ala-Trp-Leu-Val-Arg-Gly-Arg-Gly-NH2 (HXEGTFTSDVCSYLEGQAAXEFIAWLVRGRG; αAib; palmitoyl on Lys; C-terminal amide; Sequence is synthesized; (2)..(2) Xaa is aAib; (20)..(20) Xaa is 26Lys[N-e-(N-a-palmitoyl-L-g-glutamyl)]; (31)..(31) N-terminal) [G4 series 28]	7 days
His-aAib-Glu-Gly-Thr-Phe-Thr-Ser-Asp-Val-Ser-Cys-Tyr-Leu-Glu-Gly-Gln-Ala-Ala-Lys[N-ϵ-(N-α-oleoyl-L-γ-glutamyl)]-Glu-Phe-Ile-Ala-Trp-Leu-Val-Arg-Gly-Arg-Gly-OH (HXEGTFTSDVSCYLEGQAAXEFIAWLVRGRG; Aib; oleoyl-gamma-Glu on Lys; C-terminal acid; Sequence is synthesized; (2)..(2) Xaa is aAib; (20)..(20) Xaa is LyO; (31)..(31) C-terminal) [G6 series 46]	5 days
His-Ala-Glu-Gly-Thr-Phe-Thr-Cys-Asp-Val-Ser-Ser-Tyr-Leu-Glu-Gly-Gln-Ala-Ala-Lys[N-α-(N-α-oleoyl-L-γ-glutamyl)]-Glu-Phe-Ile-Ala-Trp-Leu-Val-Arg-Gly-Arg-Gly-NH2 (HAEGTFTCDVSSYLEGQAAXEFIAWLVRGRG; oleoyl-gamma-Glu on Lys; C-terminal amide; Sequence is synthesized; (20)..(20) Xaa is 26Lys[N-e-(N-a-oleoyl-L-g-glutamyl)]; (31)..(31) N-terminal) [G8 series 59]	3 days
His-aAib-Glu-Gly-Thr-Phe-Thr-Ser-Asp-Val-Ser-Cys-Tyr-Leu-Glu-Gly-Gln-Ala-Ala-Lys-Glu-Phe-Ile-Ala-Trp-Leu-Val-Lys-aAib-Arg-NH2 (H[Aib]EGTFTSDVSCYLEGQAAKEFIAWLVK[Aib]R-NH2; also: disulfide-linked homodimer via Cys) [G7 series 53]	3 days

Same assay, conditions: single injection at the same dose (1.126 nmol), subcutaneous

Substance	Hypoglycemic duration
2G5 series 44: disulfide-linked homodimer of monomer SEQ ID NO: 44 (HXEGTFTSDVSCYLEGQAAXEFIAWLVXGRG; disulfide-linked homodimer; Sequence is synthesized; (2)..(2) Xaa is bAla; (20)..(20) Xaa is 26Lys[N-e-(N-a-palmitoyl-L-g-glutamyl)]; (28)..(28) Xaa is 26Lys[N-e-(N-a-palmitoyl-L-g-glutamyl)]; (31)..(31) N-terminal)	6 days
2G6 series 50: disulfide-linked homodimer of monomer SEQ ID NO: 50 (HXEGTFTSDVSCYLEGQAAXEFIAWLVRGRG; disulfide-linked homodimer; Sequence is synthesized; (2)..(2) Xaa is bAla; (20)..(20) Xaa is 26Lys[N-e-(N-a-oleoyl-L-g-glutamyl)]; (31)..(31) N-terminal)	16 days
2G4 series 35: disulfide-linked homodimer of monomer SEQ ID NO: 35 (HAEGTFTSDVSCYLEGQAAXEFIAWLVRGRG; not fully specified; disulfide-linked homodimer; Sequence is synthesized; (20)..(20) Xaa is 26Lys[N-e-(N-a-palmitoyl-L-g-glutamyl)]; (31)..(31) N-terminal)	15 days
2G2 series 19: disulfide-linked homodimer of monomer SEQ ID NO: 19 (chain 1 H[βAla]EGTFTSDVCSYLEGQAAKEFIAWLVR[βAla]R; chain 2 H[βAla]EGTFTSDVCSYLEGQAAKEFIAWLVR[βAla]R; disulfide I:11-II:11 (inferred); not fully specified (C-terminus))	3 days
2G4 series 26: disulfide-linked homodimer of monomer SEQ ID NO: 26 (HAEGTFTSDVCSYLEGQAAXEFIAWLVRGRG; not fully specified; disulfide-linked homodimer; Sequence is synthesized; (20)..(20) Xaa is 26Lys[N-e-(N-a-oleoyl-L-g-glutamyl)]; (31)..(31) C-terminal)	12 days
